For one data set, the system named is Cyperus iria. As to the kind of experiment: Preemergence weed control under flooded paddy conditions, CYPIR (Rice Flatsedge). The settings on record: preemergence, flooded paddy, rated three to four weeks after treatment. The format is in vivo.
The test system of data set [1] is Cyperus serotinus, Rottb. As to the kind of experiment: Preemergence weed control under flooded paddy conditions, CYPSE (Flatsedge). It counts as in vivo. The settings on record: preemergence, rated three to four weeks after treatment.
Data set [2] concerns Echinochloa oryzoides (Ard.) Fritsch. As to the kind of experiment: Preemergence weed control under flooded paddy conditions, ECHORC (Watergrass (Calif.)). It counts as in vivo. Conditions: preemergence, flooded paddy, rated three to four weeks after treatment.
Data set [3] relates to Monochoria vaginalis, Presl. In words: Preemergence weed control under flooded paddy conditions, MOOVA (Monochoria). The format is in vivo. Conditions: preemergence, flooded paddy, rated three to four weeks after treatment.
A further data set deals with Sagittaria pygmaea, L. As to the kind of experiment: Preemergence weed control under flooded paddy conditions, SAGPY (Arrowhead (Pygmaea)). It counts as in vivo. Conditions: preemergence, flooded paddy, rated three to four weeks after treatment.
The subject of data set [4] is Oryza sativa, (L.) Tebonnet. In words: Rice tolerance to post-transplant applications under flooded paddy conditions (Example 187), ORYSAT (Rice, Tebonnet). The settings on record: rated three to four weeks after treatment.

The structures appear in SMILES notation.
Also: meaning of each grade not given here.

For `Cn1c(C(F)(F)F)cc(=O)n(-c2ccc3snc(C(C#N)=Cc4ccccn4)c3c2)c1=O` [Example 592, 1,2-Benzisothiazole-3-acetonitrile, 5-[3,6-dihydro-3-methyl-2,6-dioxo-4-(trifluoromethyl)-1(2H)-pyrimidinyl]-alpha-(2-pyridylmethylene)-], the “herbicidal effect rating, CYPIR” value in the data set on Cyperus iria (Rate 0.0320 kg/ha) was 2.0; with Cyperus iria (Rate 0.0620 kg/ha), 3.0; with Cyperus iria (Rate 0.1250 kg/ha) it was 4.0; in the data set with Cyperus iria (Rate 0.2500 kg/ha), 6.0. Further, the “herbicidal effect rating, CYPSE” value in data set [1] (Rate 0.0320 kg/ha) and in data set [1] (Rate 0.1250 kg/ha) was 0.0 in each case. Moreover, the “herbicidal effect rating, ECHORC” value is recorded as 0.0 in data set [2] (Rate 0.0320 kg/ha), 3.0 in data set [2] (Rate 0.0620 kg/ha), 4.0 in data set [2] (Rate 0.1250 kg/ha) and 5.0 in data set [2] (Rate 0.2500 kg/ha). Also, the “herbicidal effect rating, MOOVA” value in data set [3] (Rate 0.0320 kg/ha) is reported as 8.0; in data set [3] (Rate 0.0620 kg/ha) it was 9.0; in data set [3] (Rate 0.1250 kg/ha), 9.0; in data set [3] (Rate 0.2500 kg/ha), 9.0. Further, the “herbicidal effect rating, SAGPY” value is given as 0.0 with Sagittaria pygmaea, L. (Rate 0.0320 kg/ha); 3.0 in the data set on Sagittaria pygmaea, L. (Rate 0.0620 kg/ha); 3.0 in the data set on Sagittaria pygmaea, L. (Rate 0.1250 kg/ha). For the same compound, the “herbicidal effect rating ORYSAT” value in data set [4] (Rate 0.0320 kg/ha) is reported as 2.0; in data set [4] (Rate 0.0620 kg/ha) it was 2.0; in data set [4] (Rate 0.1250 kg/ha), 4.0; in data set [4] (Rate 0.2500 kg/ha), 4.0.
Regarding `Cn1c(C(F)(F)F)cc(=O)n(-c2ccc3snc(C(C#N)=Cc4ccoc4)c3c2)c1=O` [Example 593, 1,2-Benzisothiazole-3-acetonitrile, 5-[3,6-dihydro-3-methyl-2,6-dioxo-4-(trifluoromethyl)-1(2H)-pyrimidinyl]-alpha-(3-furylmethylene)-], the “herbicidal effect rating, CYPIR” value in the data set on Cyperus iria (Rate 0.0320 kg/ha) is recorded as 3.0; in the data set on Cyperus iria (Rate 0.0620 kg/ha) it was 3.0; with Cyperus iria (Rate 0.1250 kg/ha), 4.0; in the data set on Cyperus iria (Rate 0.2500 kg/ha) it was 5.0. Also, the “herbicidal effect rating, CYPSE” value in data set [1] (Rate 0.1250 kg/ha) and in data set [1] (Rate 0.2500 kg/ha) was 0.0 each time. Moreover, the “herbicidal effect rating, ECHORC” value in data set [2] (Rate 0.0320 kg/ha), in data set [2] (Rate 0.0620 kg/ha), in data set [2] (Rate 0.1250 kg/ha) and in data set [2] (Rate 0.2500 kg/ha) was 0.0 in each case. Moreover, the “herbicidal effect rating, MOOVA” value in data set [3] (Rate 0.0620 kg/ha), in data set [3] (Rate 0.1250 kg/ha) and in data set [3] (Rate 0.2500 kg/ha) was 7.0 throughout. In addition, the “herbicidal effect rating, SAGPY” value in the data set on Sagittaria pygmaea, L. (Rate 0.0320 kg/ha) amounted to 0.0; in the data set with Sagittaria pygmaea, L. (Rate 0.0620 kg/ha), 0.0; with Sagittaria pygmaea, L. (Rate 0.1250 kg/ha), 0.0; in the data set on Sagittaria pygmaea, L. (Rate 0.2500 kg/ha) it was 0.0. The “herbicidal effect rating ORYSAT” value in data set [4] (Rate 0.0320 kg/ha), in data set [4] (Rate 0.0620 kg/ha), in data set [4] (Rate 0.1250 kg/ha) and in data set [4] (Rate 0.2500 kg/ha) was 0.0 throughout.
With `Cn1c(C(F)(F)F)cc(=O)n(-c2ccc3snc(C(C#N)=Cc4ccco4)c3c2)c1=O` [Example 594, 1,2-Benzisothiazole-3-acetonitrile, 5-[3,6-dihydro-3-methyl-2,6-dioxo-4-(trifluoromethyl)-1(2H)-pyrimidinyl]-alpha-furfurylidene-], the “herbicidal effect rating, CYPIR” value was 3.0 with Cyperus iria (Rate 0.0320 kg/ha), 5.0 in the data set with Cyperus iria (Rate 0.0620 kg/ha), 5.0 with Cyperus iria (Rate 0.1250 kg/ha) and 9.0 with Cyperus iria (Rate 0.2500 kg/ha). Moreover, in data set [1] (Rate 0.0320 kg/ha), the “herbicidal effect rating, CYPSE” value was found to be 0.0. Besides, the “herbicidal effect rating, ECHORC” value is recorded as 3.0 in data set [2] (Rate 0.0320 kg/ha), 5.0 in data set [2] (Rate 0.0620 kg/ha), 6.0 in data set [2] (Rate 0.1250 kg/ha) and 7.0 in data set [2] (Rate 0.2500 kg/ha). The “herbicidal effect rating, MOOVA” value in data set [3] (Rate 0.0320 kg/ha) is 6.0; in data set [3] (Rate 0.0620 kg/ha), 7.0; in data set [3] (Rate 0.1250 kg/ha) it was 9.0; in data set [3] (Rate 0.2500 kg/ha) it was 9.0. Moreover, the “herbicidal effect rating, SAGPY” value in the data set with Sagittaria pygmaea, L. (Rate 0.0320 kg/ha) was 2.0; in the data set on Sagittaria pygmaea, L. (Rate 0.0620 kg/ha), 4.0; in the data set with Sagittaria pygmaea, L. (Rate 0.1250 kg/ha), 5.0. For the same compound, the “herbicidal effect rating ORYSAT” value in data set [4] (Rate 0.0320 kg/ha) was found to be 1.0; in data set [4] (Rate 0.0620 kg/ha) it was 2.0; in data set [4] (Rate 0.1250 kg/ha), 2.0; in data set [4] (Rate 0.2500 kg/ha), 3.0.
Consider `Cn1c(C(F)(F)F)cc(=O)n(-c2ccc3snc(C(C#N)=Cc4ccncc4)c3c2)c1=O` [Example 596, 1,2-Benzisothiazole-3-acetonitrile, 5-[3,6-dihydro-3-methyl-2,6-dioxo-4-(trifluoromethyl)-1(2H)-pyrimidinyl]-alpha-(4-pyridylmethylene)-], for which the “herbicidal effect rating, CYPIR” value in the data set with Cyperus iria (Rate 0.0320 kg/ha), in the data set with Cyperus iria (Rate 0.0620 kg/ha), in the data set on Cyperus iria (Rate 0.1250 kg/ha) and in the data set with Cyperus iria (Rate 0.2500 kg/ha) was 0.0 in each case. Besides, the “herbicidal effect rating, CYPSE” value in data set [1] (Rate 0.0320 kg/ha), in data set [1] (Rate 0.0620 kg/ha), in data set [1] (Rate 0.1250 kg/ha) and in data set [1] (Rate 0.2500 kg/ha) was 0.0 in each case. Moreover, the “herbicidal effect rating, ECHORC” value turned out to be 0.0 in data set [2] (Rate 0.0320 kg/ha), 4.0 in data set [2] (Rate 0.0620 kg/ha), 5.0 in data set [2] (Rate 0.1250 kg/ha) and 7.0 in data set [2] (Rate 0.2500 kg/ha). Besides, the “herbicidal effect rating, MOOVA” value in data set [3] (Rate 0.0320 kg/ha) is 3.0; in data set [3] (Rate 0.0620 kg/ha), 4.0; in data set [3] (Rate 0.1250 kg/ha) it was 7.0; in data set [3] (Rate 0.2500 kg/ha), 9.0. The “herbicidal effect rating, SAGPY” value in the data set on Sagittaria pygmaea, L. (Rate 0.0320 kg/ha) amounted to 0.0; in the data set on Sagittaria pygmaea, L. (Rate 0.0620 kg/ha), 0.0; in the data set with Sagittaria pygmaea, L. (Rate 0.1250 kg/ha), 2.0; with Sagittaria pygmaea, L. (Rate 0.2500 kg/ha) it was 6.0. Moreover, the “herbicidal effect rating ORYSAT” value in data set [4] (Rate 0.0320 kg/ha) was determined as 0.0; in data set [4] (Rate 0.0620 kg/ha) it was 3.0; in data set [4] (Rate 0.1250 kg/ha), 4.0; in data set [4] (Rate 0.2500 kg/ha), 6.0.
With `Cc1ccc(C=C(C#N)c2nsc3ccc(-n4c(=O)cc(C(F)(F)F)n(C)c4=O)cc23)cc1` [Example 597, 1,2-Benzisothiazole-3-acetonitrile, 5-[3,6-dihydro-3-methyl-2,6-dioxo-4-(trifluoromethyl)-1(2H)-pyrimidinyl]-alpha-(p-methylbenzylidene)-], the “herbicidal effect rating, CYPIR” value in the data set with Cyperus iria (Rate 0.0320 kg/ha), in the data set on Cyperus iria (Rate 0.0620 kg/ha), in the data set with Cyperus iria (Rate 0.1250 kg/ha) and in the data set with Cyperus iria (Rate 0.2500 kg/ha) was 0.0 each time. The “herbicidal effect rating, CYPSE” value in data set [1] (Rate 0.0320 kg/ha), in data set [1] (Rate 0.0620 kg/ha), in data set [1] (Rate 0.1250 kg/ha) and in data set [1] (Rate 0.2500 kg/ha) was 0.0 throughout. In addition, the “herbicidal effect rating, ECHORC” value is reported as 4.0 in data set [2] (Rate 0.0320 kg/ha), 6.0 in data set [2] (Rate 0.0620 kg/ha), 7.0 in data set [2] (Rate 0.1250 kg/ha) and 9.0 in data set [2] (Rate 0.2500 kg/ha). The “herbicidal effect rating, MOOVA” value in data set [3] (Rate 0.0620 kg/ha) and in data set [3] (Rate 0.2500 kg/ha) was 4.0 each time. The “herbicidal effect rating, SAGPY” value in the data set on Sagittaria pygmaea, L. (Rate 0.0320 kg/ha) amounted to 0.0; in the data set with Sagittaria pygmaea, L. (Rate 0.0620 kg/ha) it was 0.0; in the data set with Sagittaria pygmaea, L. (Rate 0.1250 kg/ha), 0.0; in the data set with Sagittaria pygmaea, L. (Rate 0.2500 kg/ha), 0.0. Moreover, the “herbicidal effect rating ORYSAT” value in data set [4] (Rate 0.0320 kg/ha), in data set [4] (Rate 0.0620 kg/ha), in data set [4] (Rate 0.1250 kg/ha) and in data set [4] (Rate 0.2500 kg/ha) was 0.0 each time.

The values are drawn from patent EP0908457B1, “3-(1,2-benzisothiazol- and isoxazol-5-Y1)-2,4(1H,3H)-pyrimidinedione or thione and 3-(1,2-benzisothiazol- and isoxazol-5-y1)-4(3H)-pyrimidinone or thione herbicidal agents” (BASF AKTIENGESELLSCHAFT, priority 1997, dated 1999).
